Source: article PMC6277767, “Broad and Region-Specific Impacts of the Synthetic Cannabinoid CP 55,940 in Adolescent and Adult Female Mouse Brains” (Frontiers in Molecular Neuroscience, 2018)

Test system: CD1 female mouse brain lipidome
Assay: Brain-region lipid levels (HPLC/MS/MS lipidomics) 2 h after single i.p. 3 mg/kg CP 55,940 vs vehicle
Type: in vivo
Parameters: N-arachidonoyl phenylalanine level, Mean / N-stearoyl tryptophan level, Mean / N-stearoyl proline level, Mean / N-stearoyl leucine level, Mean / N-stearoyl phenylalanine level, Mean / N-stearoyl serine level, Mean / N-stearoyl methionine level, Mean: unit: moles per gram
Settings: cortex
Protocol: The Bloomington Institutional Animal Care and Use Committee of Indiana University reviewed and approved the animal procedures. Female mice from the CD1 strain were utilized to match our study examining THC’s effects on the brain lipidome ([Leishman et al., 2018]). Mice were given a single i.p. injection of either 3 mg/kg CP or 1:1:18 cremophor:ethanol:saline vehicle (please refer to the section “3 mg/kg CP Is Relevant for Synthetic Cannabinoid Abuse and Has Stronger Effects on the Female Mouse Brain Lipidome During Adolescence” for a justification of dose and use of female mice). Three different age groups were given injections: PND 35 and PND 50 adolescents, and adult mice (PND 113). At least eight mice in each age group received CP and at least eight received vehicle. Matching the THC study time course ([Leishman et al., 2018]), mice were sacrificed via rapid decapitation 2 h after injection. Brains were immediately removed and flash-frozen in liquid nitrogen, and then stored at -80°C until dissections were performed. Brains were dissected on an ice-cold dissection plate into the following regions: STR, HIPP, CER, THAL, CTX, HYP, MID, and STEM. These abbreviations for these brain areas will be used exclusively when discussing the results generated by these specific dissections. Each dissected area was immediately placed in liquid nitrogen and then stored at -80°C until used for lipid extraction.
Tissue extracts were performed as previously described ([Bradshaw et al., 2006]; [Stuart et al., 2013]; [Raboune et al., 2014]; [Leishman et al., 2016a],[b], [2017], [2018]). First, samples were shock frozen in liquid nitrogen, weighed, and transferred to a centrifuge tube. The mass of the largest sample was multiplied by 50 to determine how many milliliters of HPLC-grade methanol (Fisher, Fair Lawn, NJ, United States) to add. Then, samples were spiked with 500 pmol deuterium-labeled NAGly (d8NAGly; Cayman Chemical, Ann Arbor, MI, United States). Samples were placed on ice in darkness for 2 h then individually homogenized and centrifuged at 19,000 × g for 20 min at 20°C. Supernatants were diluted with HPLC water (purified in house) to make a solution of 75% water, 25% supernatant. Lipids were partially purified on C18 solid phase extraction columns (Agilent, Palo Alto, CA, United States). A series of four elutions with 1.5 mL of 60%, 75%, 85%, and 100% methanol were collected ([Stuart et al., 2013]; [Leishman et al., 2016a],[b], [2018]).
As previously described ([Bradshaw et al., 2006]; [Tan et al., 2006]; [Smoum et al., 2010]; [Stuart et al., 2013]; [Tortoriello et al., 2013]; [Raboune et al., 2014]; [Leishman et al., 2016a],[b], [2017], [2018]), samples were analyzed using an Applied Biosystems API 3000 triple quadrupole mass spectrometer with electrospray ionization (Foster City, CA, United States). Using an Agilent XDB-C18 reversed phase analytical column and optimized mobile phase gradients, 20 μL from each elution were chromatographed. Two Shimadzu 10ADvp pumps (Columbia, MD, United States) provided the pressure for gradient elution. Mobile phase A: 20% methanol, 80% water (v/v) and 1 mM ammonium acetate (Sigma, St. Louis, MO, United States). Mobile phase B: 100% methanol, 1 mM ammonium acetate. Every method run began with 0% mobile phase B, reached 100% mobile phase B flowing at 0.2 mL/min, and gradually returned to 0% mobile phase B.
This screening library will be referred to as the lipidome when discussing data from this study. HPLC/MS/MS data were analyzed using Analyst software (Applied Biosystems) ([Bradshaw et al., 2006]; [Tan et al., 2006]; [Stuart et al., 2013]; [Tortoriello et al., 2013]; [Raboune et al., 2014]; [Leishman et al., 2016a],[b], [2017], [2018]). Chromatograms (Supplementary Figure 3) were generated by determining the retention time of analytes from the analytical column with a [M-1] or [M+1] parent peak and a fragmentation peak corresponding to the programmed values. […]

[1] = PND 50, 3 mg/kg CP 55,940, ANOVA p .000
[2] = PND 50, 3 mg/kg CP 55,940, ANOVA p .002
[3] = PND 50, 3 mg/kg CP 55,940, ANOVA p .004
[4] = PND 50, 3 mg/kg CP 55,940, ANOVA p .040
[5] = PND 50 female mice, 3mg/kg CP 55,940

In the case of `CCCCCCC(C)(C)c1ccc([C@@H]2C[C@H](O)CC[C@H]2CCCO)c(O)c1` [CP 55,940], the “Arachidonic acid, Direction (relative to Veh)” value (PND 50, 3 mg/kg CP 55,940) is reported as “↓”, the “Linoleic acid, Direction (relative to Veh)” value (PND 50, 3 mg/kg CP 55,940) is reported as “↓” and the “N-arachidonoyl GABA Direction (relative to Veh)” value (PND 50, 3 mg/kg CP 55,940) is reported as “↓”. For the same compound, the “N-arachidonoyl alanine, Direction (relative to Veh)” value (PND 50, 3 mg/kg CP 55,940) was “↓”, the “N-arachidonoyl ethanolamine, Direction (relative to Veh)” value (PND 50, 3 mg/kg CP 55,940) was “↓” and the “N-arachidonoyl phenylalanine, Direction (relative to Veh)” value (PND 50, 3 mg/kg CP 55,940) was “↓”. For the same compound, the “N-arachidonoyl taurine Direction (relative to Veh)” value (PND 50, 3 mg/kg CP 55,940) was “↓”, the “N-docosahexaenoyl ethanolamine, Direction (relative to Veh)” value (PND 50, 3 mg/kg CP 55,940) was “↓” and the “N-linoleoyl ethanolamine, Direction (relative to Veh)” value (PND 50, 3 mg/kg CP 55,940) was “↓”. The “N-oleoyl ethanolamine, Direction (relative to Veh)” value (PND 50, 3 mg/kg CP 55,940) was “↓”, the “N-oleoyl serine, Direction (relative to Veh)” value (PND 50, 3 mg/kg CP 55,940) was “↑” and the “N-palmitoyl leucine, Direction (relative to Veh)” value (PND 50, 3 mg/kg CP 55,940) was “↑”. For the same compound, the “N-palmitoyl methionine, Direction (relative to Veh)” value (PND 50, 3 mg/kg CP 55,940) was “↑”, the “N-palmitoyl phenylalanine Direction (relative to Veh)” value (PND 50, 3 mg/kg CP 55,940) was “↑” and the “N-palmitoyl tyrosine, Direction (relative to Veh)” value (PND 50, 3 mg/kg CP 55,940) was “↑”. For the same compound, the “N-palmitoyl valine Direction (relative to Veh)” value (PND 50, 3 mg/kg CP 55,940) was “↑”, the “N-stearoyl phenylalanine, Direction (relative to Veh)” value (PND 50, 3 mg/kg CP 55,940) was “↑” and the “N-stearoyl valine Direction (relative to Veh)” value (PND 50, 3 mg/kg CP 55,940) was “↑”. For the same compound, the “PGE2 Direction (relative to Veh)” value (PND 50, 3 mg/kg CP 55,940) was “↓”, the “Linoleic acid, Magnitude (x Veh level)” value [1] was 0.57 x Veh level and the “N-palmitoyl leucine, Magnitude (x Veh level)” value [1] was 1.41 x Veh level. For the same compound, the “N-palmitoyl methionine, Magnitude (x Veh level)” value [1] was 1.43 x Veh level, the “N-oleoyl ethanolamine, Magnitude (x Veh level)” value [2] was 0.65 x Veh level and the “PGE2 Magnitude (x Veh level)” value [2] was 0.79 x Veh level. The “N-arachidonoyl GABA Magnitude (x Veh level)” value [3] was 0.86 x Veh level, the “N-arachidonoyl taurine Magnitude (x Veh level)” value [3] was 0.84 x Veh level and the “2-linoleoyl glycerol Magnitude (x Veh level)” value (PND 50, 3 mg/kg CP 55,940, ANOVA p .005) was 0.67 x Veh level. For the same compound, the “N-palmitoyl phenylalanine Magnitude (x Veh level)” value (PND 50, 3 mg/kg CP 55,940, ANOVA p .006) was 1.39 x Veh level, the “N-arachidonoyl ethanolamine, Magnitude (x Veh level)” value (PND 50, 3 mg/kg CP 55,940, ANOVA p .007) was 0.70 x Veh level and the “N-arachidonoyl alanine Magnitude (x Veh level)” value (PND 50, 3 mg/kg CP 55,940, ANOVA p .012) was 0.75 x Veh level. For the same compound, the “N-docosahexaenoyl ethanolamine, Magnitude (x Veh level)” value (PND 50, 3 mg/kg CP 55,940, ANOVA p .014) was 0.72 x Veh level, the “2-oleoyl glycerol, Magnitude (x Veh level)” value (PND 50, 3 mg/kg CP 55,940, ANOVA p .018) was 0.88 x Veh level and the “N-palmitoyl valine Magnitude (x Veh level)” value (PND 50, 3 mg/kg CP 55,940, ANOVA p .019) was 1.37 x Veh level. The “N-stearoyl phenylalanine, Magnitude (x Veh level)” value (PND 50, 3 mg/kg CP 55,940, ANOVA p .039) was 1.12 x Veh level, the “Arachidonic acid, Magnitude (x Veh level)” value [4] was 0.76 x Veh level and the “N-oleoyl serine, Magnitude (x Veh level)” value [4] was 1.09 x Veh level. The “N-arachidonoyl phenylalanine, Magnitude (x Veh level)” value (PND 50, 3 mg/kg CP 55,940, ANOVA p .044) was 0.78 x Veh level, the “N-palmitoyl tyrosine Magnitude (x Veh level)” value (PND 50, 3 mg/kg CP 55,940, ANOVA p .053) was 1.25 x Veh level and the “N-linoleoyl ethanolamine, Magnitude (x Veh level)” value (PND 50, 3 mg/kg CP 55,940, ANOVA p .066) was 0.69 x Veh level. For the same compound, the “N-stearoyl valine Magnitude (x Veh level)” value (PND 50, 3 mg/kg CP 55,940, ANOVA p .067) was 1.29 x Veh level, the “2-arachidonoyl glycerol level, Mean” value [5] was 2.72E-09 and the “2-linoleoyl glycerol level, Mean” value [5] was 9.55E-11. For the same compound, the “2-oleoyl glycerol level, Mean” value [5] was 1.53E-09, the “2-palmitoyl glycerol level, Mean” value [5] was 5.35E-09 and the “6-ketoPGF1α level, Mean” value [5] was 5.34E-12. For the same compound, the “11-OH-THC level, Mean” value [5] was “BDL”, the “11-nor-9-carboxyTHC level, Mean” value [5] was “BDL” and the “Arachidonic acid level, Mean” value [5] was 1.42E-09. The “Cannabidiol level, Mean” value [5] was “BDL”, the “Linoleic acid level, Mean” value [5] was 9.48E-10 and the “N- stearoyl valine level, Mean” value [5] was 2.32E-13. For the same compound, the “N-arachidonoyl GABA level, Mean” value [5] was 1.93E-11, the “N-arachidonoyl alanine level, Mean” value [5] was 9.08E-13 and the “N-arachidonoyl dopamine level, Mean” value [5] was “BDL”. For the same compound, the “N-arachidonoyl ethanolamine level, Mean” value [5] was 1.23E-11, the “N-arachidonoyl glycine level, Mean” value [5] was 3.26E-12 and the “N-arachidonoyl phenylalanine level, Mean” value [5] was 4.3E-13. For the same compound, the “N-arachidonoyl proline level, Mean” value [5] was “BDL”, the “N-arachidonoyl serine level, Mean” value [5] was 1.27E-11 and the “N-arachidonoyl taurine level, Mean” value [5] was 5.99E-11. The “N-arachidonoyl tryptophan level, Mean” value [5] was “BDL”, the “N-arachidonoyl tyrosine level, Mean” value [5] was 1.87E-13 and the “N-docosahexaenoyl GABA level, Mean” value [5] was 9.29E-12. For the same compound, the “N-docosahexaenoyl ethanolamine level, Mean” value [5] was 1.26E-11, the “N-docosahexaenoyl glycine level, Mean” value [5] was 3.17E-13 and the “N-docosahexaenoyl leucine level, Mean” value [5] was 3.29E-13. For the same compound, the “N-docosahexaenoyl methionine level, Mean” value [5] was “BDL”, the “N-docosahexaenoyl phenylalanine level, Mean” value [5] was 4.81E-13 and the “N-docosahexaenoyl proline level, Mean” value [5] was “BDL”. The “N-docosahexaenoyl serine level, Mean” value [5] was 1.83E-11, the “N-docosahexaenoyl tryptophan level, Mean” value [5] was “BDL” and the “N-docosahexaenoyl tyrosine level, Mean” value [5] was 3.22E-13. For the same compound, the “N-docosahexaenoyl valine level, Mean” value [5] was “PISSR”, the “N-linoleoyl GABA level, Mean” value [5] was 6.54E-12 and the “N-linoleoyl ethanolamine level, Mean” value [5] was 1.61E-11. The “N-linoleoyl glycine level, Mean” value [5] was 1.08E-13, the “N-linoleoyl leucine level, Mean” value [5] was 7.72E-14 and the “N-linoleoyl methionine level, Mean” value [5] was “BDL”. For the same compound, the “N-linoleoyl phenylalanine level, Mean” value [5] was 1E-13, the “N-linoleoyl proline level, Mean” value [5] was “BDL” and the “N-linoleoyl serine level, Mean” value [5] was 6.54E-11. For the same compound, the “N-linoleoyl tryptophan level, Mean” value [5] was “BDL”, the “N-linoleoyl tyrosine level, Mean” value [5] was “BDL” and the “N-linoleoyl valine level, Mean” value [5] was “PISSR”. The “N-nervonoyl valine level, Mean” value [5] was “BDL”, the “N-oleoyl GABA level, Mean” value [5] was 1.38E-11 and the “N-oleoyl alanine level, Mean” value [5] was 1.52E-12. The “N-oleoyl dopamine level, Mean” value [5] was “BDL”, the “N-oleoyl ethanolamine level, Mean” value [5] was 3.66E-11 and the “N-oleoyl glycine level, Mean” value [5] was 1.38E-12. The “N-oleoyl leucine level, Mean” value [5] was 7.87E-13, the “N-oleoyl methionine level, Mean” value [5] was 2.34E-13 and the “N-oleoyl phenylalanine level, Mean” value [5] was 1.02E-12. For the same compound, the “N-oleoyl proline level, Mean” value [5] was “BDL”, the “N-oleoyl serine level, Mean” value [5] was 1.22E-10 and the “N-oleoyl tryptophan level, Mean” value [5] was “BDL”. The “N-oleoyl tyrosine level, Mean” value [5] was 3.4E-13, the “N-oleoyl valine level, Mean” value [5] was 6.43E-14 and the “N-palmitoyl GABA level, Mean” value [5] was 1.74E-11. The “N-palmitoyl alanine level, Mean” value [5] was 1.42E-12, the “N-palmitoyl ethanolamine level, Mean” value [5] was 1.43E-11 and the “N-palmitoyl glycine level, Mean” value [5] was 6.08E-12.
